Reference: patent US6277876A, “Matrix metalloproteinase inhibitors” (Leo Pharmaceutical Products Ltd. A/S, priority 1998, dated 2001)

How the values were obtained:
[1] = molecular target: T1, MMP-9 (Homo sapiens, UniProt P14780); assay: In vitro inhibition of MMPs by gelatine zymography (MMP-9); format: biochemical; conditions: concentration that inhibited approximately half of the maximal enzymatic activity; MMPs from MCF-7 conditioned media in gelatine SDS gels, incubated overnight at 37° C., pH 7.5; read-out: In vitro inhibition of matrix metalloproteinases (nM) MMP-9
T1 construct: matrix metalloproteinases were obtained from culture media conditioned by MCF-7 human breast cancer cells; endogenous in cells; host or cells: MCF-7 human breast cancer cells (conditioned culture medium)
T1 sequence (P14780 94-707): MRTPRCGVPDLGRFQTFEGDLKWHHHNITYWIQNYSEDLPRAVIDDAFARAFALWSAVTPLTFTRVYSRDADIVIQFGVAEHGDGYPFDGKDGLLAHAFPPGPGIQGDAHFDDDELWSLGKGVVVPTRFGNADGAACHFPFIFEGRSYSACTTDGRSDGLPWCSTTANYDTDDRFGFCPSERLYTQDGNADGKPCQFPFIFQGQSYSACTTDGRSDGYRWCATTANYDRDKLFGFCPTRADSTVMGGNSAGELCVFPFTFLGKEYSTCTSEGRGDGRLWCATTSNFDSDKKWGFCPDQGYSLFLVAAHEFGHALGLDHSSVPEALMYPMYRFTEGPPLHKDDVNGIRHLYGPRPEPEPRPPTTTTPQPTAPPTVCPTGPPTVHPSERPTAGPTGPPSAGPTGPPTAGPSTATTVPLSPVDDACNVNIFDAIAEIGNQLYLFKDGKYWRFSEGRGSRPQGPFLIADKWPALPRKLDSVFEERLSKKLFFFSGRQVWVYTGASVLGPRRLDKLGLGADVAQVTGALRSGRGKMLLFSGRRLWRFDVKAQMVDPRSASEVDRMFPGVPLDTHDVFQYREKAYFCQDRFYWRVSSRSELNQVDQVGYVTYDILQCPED
Protocol: (§1) The compounds were tested in vitro using the following procedure: matrix metalloproteinases were obtained from culture media conditioned by MCF-7 human breast cancer cells and separated by electrophoresis on SDS-acrylamide gels (7.0%) copolymerised with gelatine (1 mg/ml, Sigma, Mo., USA). The gels containing the MMPs were then incubated with the test compounds overnight in 10 ml buffer (50 mM tris-HCl, pH 7.5, 200 mM NaCl, 5 mM CaCl2, 1 μM ZnCl2, 0.002% NaN3) at 37° C. The gels were stained for 60 min with 0.5% Coomassie brilliant blue R-250 in 10% acetic acid, destained with 10% acetic acid, incubated with 5% glycerol, and dried with a gel drier. The molar concentrations that inhibited approximately half of the maximal enzymatic activity were then determined.

[2] = tested on: MMP-2/3; assay: In vitro inhibition of MMPs by gelatine zymography (MMP-2/3); format: biochemical, human; conditions: concentration that inhibited approximately half of the maximal enzymatic activity; MMPs from MCF-7 conditioned media in gelatine SDS gels, incubated overnight at 37° C., pH 7.5; read-out: In vitro inhibition of matrix metalloproteinases (nM) MMP-2/3
Protocol: as §1

| IC50 [1] [nM] | IC50 [2] [nM] | Compound |
| --- | --- | --- |
| 10 |  | CNC(=O)[C@H](Cc1ccccc1)NC(=O)[C@@H](CC(=O)NO)CC(C)C [Comparator 1, N^1 -Hydroxy-3R-isobutyl-N^4-[1S-(methylcarbamoyl)-2-phenylethyl]-succinamide, reference compound] |
| 1 | 1 | O=C(C[C@@H](CCCc1ccccc1)C(=O)N[C@@H](Cc1ccccc1)C(=S)NCCCc1ccccc1)NO [Example 5] |
| 1 | 1 | CNC(=S)[C@H](Cc1ccccc1)NC(=O)[C@H](CCCc1ccccc1)CC(=O)NO [Example 4, N^4 -Hydroxy-N^1-[1(S)-(methylthiocarbamoyl)-2-Rhenylethyl]-2(R)-phenylpropyl-succinamide] |
| 1 | 1 | CNC(=S)[C@H](Cc1ccccc1)NC(=O)[C@@H](CC(=O)NO)CC(C)C [Example 3, N^4 -Hydroxy-2(R)-isobutyl-N^1-[1(S)-(methylthiocarbamoyl)-2-phenylethyl]-succinamide] |
